The term IC50 denotes the concentration that inhibits the measured activity by half.

Molecules are shown by their SMILES.

For this assay, the target named is T1, spliced XBP1 mRNA (target of IRE endonuclease) in MCF-7 cancer cells (Homo sapiens, UniProt O75460).
T1 construct: tunicamycin ER stress; RT-PCR of spliced XBP1 mRNA (RNase domain activity)
T1 sequence (O75460 19-977): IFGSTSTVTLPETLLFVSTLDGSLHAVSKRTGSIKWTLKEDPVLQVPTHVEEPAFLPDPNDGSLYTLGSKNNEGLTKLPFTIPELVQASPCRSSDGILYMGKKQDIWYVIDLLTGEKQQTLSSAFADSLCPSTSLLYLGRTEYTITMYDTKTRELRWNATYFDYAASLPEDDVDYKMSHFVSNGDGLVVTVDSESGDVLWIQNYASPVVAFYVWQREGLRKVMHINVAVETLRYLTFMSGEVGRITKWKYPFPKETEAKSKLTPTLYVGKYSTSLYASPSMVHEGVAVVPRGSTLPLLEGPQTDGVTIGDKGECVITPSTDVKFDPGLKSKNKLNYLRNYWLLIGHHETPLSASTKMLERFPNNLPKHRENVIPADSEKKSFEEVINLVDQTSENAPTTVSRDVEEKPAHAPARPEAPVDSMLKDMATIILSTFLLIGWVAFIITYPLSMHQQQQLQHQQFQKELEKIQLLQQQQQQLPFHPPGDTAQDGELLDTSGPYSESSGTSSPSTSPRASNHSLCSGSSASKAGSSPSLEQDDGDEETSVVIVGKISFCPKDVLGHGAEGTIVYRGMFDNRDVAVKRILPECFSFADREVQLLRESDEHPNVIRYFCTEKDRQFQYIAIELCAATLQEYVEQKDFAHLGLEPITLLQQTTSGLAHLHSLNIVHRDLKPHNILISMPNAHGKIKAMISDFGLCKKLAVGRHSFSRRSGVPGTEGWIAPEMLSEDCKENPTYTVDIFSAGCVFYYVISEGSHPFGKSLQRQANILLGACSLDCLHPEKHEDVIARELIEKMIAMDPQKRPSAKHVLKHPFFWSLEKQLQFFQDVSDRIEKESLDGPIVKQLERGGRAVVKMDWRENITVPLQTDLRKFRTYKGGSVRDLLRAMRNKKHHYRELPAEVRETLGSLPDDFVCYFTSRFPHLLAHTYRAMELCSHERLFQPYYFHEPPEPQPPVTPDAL
Kind of assay: Spliced XBP1 mRNA Measurement Test (RT-PCR, tunicamycin-induced ER stress, MCF-7 cells). The class given is cell-based. Particulars: 1 hour pre-treatment with compound, 2 μg/mL tunicamycin 6 or 24 hours, spliced XBP1 corrected by total XBP1, read-out: XBP1 mRNA (IC50). How it is done:
A reverse transcription polymerase chain reaction is a test method in which RNA is extracted from cells, reverse transcriptase is used to make cDNA, and relative mRNA expression level is measured through a polymerase chain reaction.
Briefly, MCF-7 cells were seeded in a 12-well plate and cultured in an incubator including 5% CO2 for one day. On the next day, compounds, which were 10-fold serially diluted from 10,000 nM, were pre-treated for 1 hour, and then, treated with 2 μg/mL tunicamycin for 6 or 24 hours to induce endoplasmic reticulum stress, followed by cell lysis to obtain RNA. RNA was subjected to the procedure of RNeasy Kits (Qiagen, 74106), and 5 μg of RNA sample was dissolved in a sample including reverse transcriptase and dNTP, and reverse transcription reaction was performed with a thermal cycler. The amount of mRNA of each of spliced XBP1 and total XBP1 was measured by a polymerase chain reaction through real time PCR by mixing each cDNA sample with a PCR reaction mixture including a primer pair capable of binding specifically to each target and SYBR green dye. The expression level of spliced XBP1 was corrected by the total expression level of XBP1, and the relative expression levels of spliced XBP1 between samples were compared and analyzed.
As to `CCN(CC)C(=O)Cc1c(C)c2c3c(c(O)c(C=O)c2oc1=O)OCCC3` [Example 25, N,N-diethyl-2-(5-formyl-6-hydroxy-1-methyl-3-oxo-3,8,9,10-tetrahydropyrano[3,2-f]chromen-2-yl)acetamide], the IC50 was under 100 nM. The figure for `CC(=O)N1CCN(C(=O)Cc2c(C)c3c4c(c(O)c(C=O)c3oc2=O)OCCC4)CC1` [Example 26, 2-(2-(4-acetylpiperazin-1-yl)-2-oxoethyl)-6-hydroxy-1-methyl-3-oxo-3,8,9,10-tetrahydropyrano[3,2-f]chromene-5-carbaldehyde] is over 200 nM. Regarding `Cc1c(CC(=O)N2CC3CC2CO3)c(=O)oc2c(C=O)c(O)c3c(c12)CCCO3` (stereo not shown) [Example 27, 2-(2-(2-oxa-5-azabicyclo[2.2.1]heptan-5-yl)-2-oxoethyl)-6-hydroxy-1-methyl-3-oxo-3,8,9,10-tetrahydropyrano[3,2-f]chromene-5-carbaldehyde], the IC50 is under 100 nM. On to `Cc1c(CC(=O)N2CCSCC2)c(=O)oc2c(C=O)c(O)c3c(c12)CCCO3` [Example 28, 6-hydroxy-1-methyl-3-oxo-2-(2-oxo-2-thiomorpholinoethyl)-3,8,9,10-tetrahydropyrano[3,2-f]chromene-5-carbaldehyde], for which the concentration for half-maximal inhibition (IC50) was in the range of 100 to 200 nM. To `Cc1c(CC(=O)NCCN2CCOCC2)c(=O)oc2c(C=O)c(O)c3c(c12)CCCO3` [Example 29, 2-(5-formyl-6-hydroxy-1-methyl-3-oxo-3,8,9,10-tetrahydropyrano[3,2-f]chromen-2-yl)-N-(2-morpholinoethyl)acetamide] belongs over 200 nM. With `Cc1c(CC(=O)N2CCSC2)c(=O)oc2c(C=O)c(O)c3c(c12)CCCO3` [Example 30, 6-hydroxy-1-methyl-3-oxo-2-(2-oxo-2-(thiazolidin-3-yl)ethyl)-3,8,9,10-tetrahydropyrano[3,2-f]chromene-5-carbaldehyde], the IC50 is under 100 nM.

Consider `Cc1c(CC(=O)N2CCNCC2)c(=O)oc2c(C=O)c(O)c3c(c12)CCCO3` [Example 31, 6-hydroxy-1-methyl-3-oxo-2-(2-oxo-2-(piperazin-1-yl)ethyl)-3,8,9,10-tetrahydropyrano[3,2-f]chromene-5-carbaldehyde], for which the IC50 was over 200 nM.

The record behind these values is patent US20260345623A1, “NOVEL […] HETEROCYCLIC CARBALDEHYDE COMPOUND AND PHARMACEUTICAL COMPOSITION, CONTAINING SAME, FOR IRE1alpha INHIBITION” (HANMI PHARM. CO., LTD., priority 2022, published 2026).
